Measurements taken from patent US8367644B2, “Methods and compounds useful to induce apoptosis in cancer cells” (The Burnham Institute, priority 2003, dated 2013).
Where two headings read alike, the source gives them in different places.

How the values were obtained:
Bcl-xL = biological target: T1, Bcl-xL (Homo sapiens, UniProt Q07817); experiment: Fluorescence polarization-based competitive binding assay (FPA) with fluorescein-labeled Bad peptide
T1 construct: made in house
Procedure: FPA assays were conducted with a fluorescein-labeled Bad peptide ([sequence]-K(FITC)-FVD) (SEQ ID NO:1) (Synpep Corporation, Dublin, Calif.) using a LJL Analyst HT (Molecular Devices Co., Sunnyvale, Calif.). Dilution buffer for all stocks and samples was 50 mM Tris-Bis pH 7.4, 0.01% bovine gamma globulin. A series of two-fold dilutions of Gossypol were prepared, i.e., 100 μM, 50 μM, down to 0.1 μM in dilution buffer. To each tube was added a solution containing 30 nM of Bcl-xL and 4 nM fluoresceinated peptide. The tubes were incubated for 5 minutes at room temperature and 20 μl each of reaction mixture was transferred to 96-well black PS, HE Microplate (LJL Biosystems Co.). All assays were performed in quadruplicate, with blank wells receiving no Gossypol. Then, the plate was read for total intensity and polarization (in mP units) was measured. Controls included dose-responses measurements in absence of the proteins, to assess any interactions between the compounds and the FITC-BH3 peptide. Eventual effects were taken into account by subtraction.

HeLa cells = HeLa cells viability assay; format: cell-based; settings: Homo sapiens, read-out: IC50 (μM) HeLa
Procedure: (§1) To evaluate the cytotoxic activity of our compounds on human tumors cells, we tested their biological activities using XTT dye reduction assays using two breast cancer cell lines: MCF7 (high expressor of Bcl-2/Bcl-xL) and ZR75-1 (low expressor of Bcl-2/Bcl-xL).
(§2) The effects of the compounds studied in this paper on viability of tumor cells in culture were monitored by using XTT (Weislow et al., J. Natl. Cancer Inst., 81:577 (1989)) assays with MCF7 and ZR75-1 cell lines. MCF7 cells were grown in DMEM containing 10% fetal bovine serum, penicillin/streptomycin, supplemented with 10^−10 M insulin, 1 mM sodium pyruvate and glutamine. ZR75-1 cells were grown in RPMI containing 10% fetal bovine serum, penicillin/streptomycin, supplemented with HEPES buffer, 1 mM sodium pyruvate and glutamine. Cells were regularly tested for mycoplasma contamination. Cells were seeded triplicates at an initial cell density of 1,000 cells per well. Blank wells received no cells. […] Relative numbers of viable cells was determined by XTT assay. Briefly, in a 96-well plate, we added 50 μl of a mixture of 1 mg/ml of XTT (Weislow et al., J. Natl. Cancer Inst., 81:577 (1989)) (2,3-bis(2-methoxy-4-nitro-5-sulfophenyl)-5-[(phenylamino)carbonyl]-2H-tetrazolium hydroxide) (Polysciences, Washington, Pa.) containing 0.025 mM PMS (phenazine methosulfate) to each well. The 96-well plates were re-incubated for an additional 4 hours to allow for XTT formazan production. Then, the contents of each plate were mixed and optical densities were determined at a wavelength of 450 nm (OD450). Net OD450 was determined after subtracting OD450 of blank wells. Low-passage HeLa cells (between passage number 10 and 20) were transfected with pcDNA3-Bcl-xL or control pcDNA3 plasmids using Lipofectamine Plus reagent (Invitrogen) and selected in medium containing 800 μg/ml of G418. Immunoblot analysis of Bcl-xL was accomplished as described (Krajanski 1996-Cancer Res) HeLa-transfectants were treated with various doses of Gossypol, Purpurogallin, and its derivatives (0, 1, 3, 10 and 100 μM).

[1] = tested on: ZR75-1 cell line (low expressor of Bcl-2/Bcl-xL); experiment: XTT dye reduction cell viability assay, ZR75-1; settings: ZR75-1, XTT; for IC50: read-out: IC50, cell viability, three days
Procedure: as §1, §2

[2] = previous cell-based assays; cited from earlier work
[3] = tested on: MCF7 cell line (high expressor of Bcl-2/Bcl-xL); experiment: XTT dye reduction cell viability assay, MCF7
Procedure: as §1
The effects of the compounds studied in this paper on viability of tumor cells in culture were monitored by using XTT (Weislow et al., J. Natl. Cancer Inst., 81:577 (1989)) assays with MCF7 and ZR75-1 cell lines. MCF7 cells were grown in DMEM containing 10% fetal bovine serum, penicillin/streptomycin, supplemented with 10^−10 M insulin, 1 mM sodium pyruvate and glutamine. ZR75-1 cells were grown in RPMI containing 10% fetal bovine serum, penicillin/streptomycin, supplemented with HEPES buffer, 1 mM sodium pyruvate and glutamine. Cells were regularly tested for mycoplasma contamination. Cells were seeded triplicates at an initial cell density of 1,000 cells per well. Blank wells received no cells. […] Relative numbers of viable cells was determined by XTT assay. […] Then, the contents of each plate were mixed and optical densities were determined at a wavelength of 450 nm (OD450). Net OD450 was determined after subtracting OD450 of blank wells. […]

[4] = Combination of Apogossypol with fludarabine (FIG. 6, 7); format: cell-based
[5] = Table 1, green tea extracts, target Bcl-xL inferred from text and figure legends, read-out: IC50
[6] = Table 4, Purpurogallin derivatives, read-out: IC50 (μM) (Bcl-xL)
[7] = Table 2, black tea extracts, target Bcl-xL inferred from text and figure legends, read-out: IC50

T1 sequence (Q07817 whole entry): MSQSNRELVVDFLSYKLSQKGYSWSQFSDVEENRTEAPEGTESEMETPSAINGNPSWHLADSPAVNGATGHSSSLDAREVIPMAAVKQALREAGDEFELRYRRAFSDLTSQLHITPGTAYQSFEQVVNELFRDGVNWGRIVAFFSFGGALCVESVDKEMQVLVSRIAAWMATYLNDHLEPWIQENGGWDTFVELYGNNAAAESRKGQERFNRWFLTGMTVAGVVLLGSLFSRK

O=C(O[C@@H]1Cc2c(O)cc(O)cc2O[C@@H]1c1ccc(O)c(O)c1)c1cc(O)c(O)c(O)c1 [(−) Epicatechin-3-gallate (ECG), (−) Epicatechin-3-gallate]
IC50 (Bcl-xL; [5]): 0.24 µM

COc1c(O)cc2cccc(OC)c(=O)c2c1OC [Compound 6A7]
IC50 (HeLa cells; HeLa): > 100 µM | IC50 (Bcl-xL): > 100 µM

CCOC(=O)c1cc(O)c(=O)c2cc(O)c(O)cc2c1 [Compound 5D1]
IC50 (HeLa cells; Table 4, HeLa cells viability): 51.5 µM | IC50 [1]: ~50 µM | IC50 (Bcl-xL; [6]): 73 µM

O=C(O)c1cc(O)c(=O)c2cc(O)c(O)cc2c1 [Compound 1142]
IC50 (HeLa cells; Table 4, HeLa cells viability): 22.9 µM | IC50 (Bcl-xL; [6]): 7.4 µM

COC(=O)c1cc(O)c(=O)c2cc(O)c(O)cc2c1 [Compound 1163]
IC50 (Bcl-xL; [6]): 2.6 µM

Cc1cc2c(C(C)C)c(O)c(O)c(C=O)c2c(O)c1-c1c(C)cc2c(C(C)C)c(O)c(O)c(C=O)c2c1O [(−) Gossypol]
effectiveness as a cytotoxic agent relative to (+) Gossypol [2]: ten times more effective than (+) Gossypol

O=C(O[C@@H]1Cc2c(O)cc(O)cc2O[C@H]1c1ccc(O)c(O)c1)c1cc(O)c(O)c(O)c1 [(−) Catechin-3-gallate (CG), (−) Catechin-3-gallate]
IC50 (Bcl-xL; [5]): 0.29 µM

O=c1c(O)cccc2cc(O)c(O)c(O)c12 [Purpurogallin]
IC50 (HeLa cells; Table 4, HeLa cells viability): 6.5 µM | cytotoxic activity [1]: did not show appreciable activity | competition for the BH3-binding pocket (Bcl-xL; FIG. 1 legend): compete for the BH3-binding pocket of Bcl-xL | cytotoxic activity [3]: did not show appreciable activity

O=C(O[C@@H]1Cc2c(O)cc(O)cc2O[C@@H]1c1cc(O)c(O)c(O)c1)c1cc(O)c(O)c(O)c1 [(−) Epigallocatechin-3-gallate (EGCG), (−) Epigallocatechin-3-gallate]
IC50 (Bcl-xL; [5]): 0.98 µM

O=c1c(O)cccc2c([C@H]3Oc4cc(O)cc(O)c4C[C@H]3O)cc(O)c(O)c12 [Theaflavanin]
IC50 (Bcl-xL; [7]): 0.55 µM

COc1cc2cccc(OC)c(=O)c2c(OC)c1OC [Compound 6A1]
IC50 (HeLa cells; Table 4, HeLa cells viability): > 100 µM | IC50 (Bcl-xL; [6]): > 100 µM

O=c1c(O)cc([C@H]2Oc3cc(O)cc(O)c3C[C@H]2O)cc2c([C@H]3Oc4cc(O)cc(O)c4C[C@H]3O)cc(O)c(O)c12 [Theaflavin]
IC50 (Bcl-xL; [7]): 1.05 µM

Cc1cc2c(C(C)C)c(O)c(O)cc2c(O)c1-c1c(C)cc2c(C(C)C)c(O)c(O)cc2c1O [Apogossypol (6C1), Apogossypol]
effect in combination with fludarabine (F-ara-A) ([4]; FIG. 6): additive effect | effect in combination with F-ara-A ([4]; FIG. 7): synergistic Effect

Oc1cc(O)c2c(c1)O[C@@H](c1cc(O)c(O)c(O)c1)[C@H](O)C2 [(−) Gallocatechin (GC), (−) Gallocatechin]
IC50 (Bcl-xL; [5]): > 100 µM

Cc1cc2c(C(C)C)c(O)c(O)c(C=O)c2c(O)c1-c1c(C)cc2c(C(C)C)c(O)c(O)c(C=O)c2c1O (racemic) [Gossypol]
IC50 [1]: 8.4 µM | IC50 ([3]; read-out: IC50, cell viability, three days): 13.2 µM

Oc1cc(O)c2c(c1)O[C@@H](c1ccc(O)c(O)c1)[C@H](O)C2 [(−) Catechin (C), (−) Catechin]
IC50 (Bcl-xL; [5]): > 100 µM

O=C(O[C@H]1Cc2c(O)cc(O)cc2OC1c1cc(O)c(=O)c2c(O)c(O)cc([C@H]3Oc4cc(O)cc(O)c4C[C@H]3O)c2c1)c1cc(O)c(O)c(O)c1 (stereo partly drawn) [Theaflavin-3′-gallate]
IC50 (Bcl-xL; [7]): 0.6 µM

Oc1cc(O)c2c(c1)O[C@H](c1cc(O)c(O)c(O)c1)[C@H](O)C2 [(−) Epigallocatechin (EGC), (−) Epigallocatechin]
IC50 (Bcl-xL; [5]): > 100 µM

Oc1cc(O)c2c(c1)O[C@@H](c1ccc(O)c(O)c1)[C@@H](O)C2 [(+) Epicatechin (EC), (+) Epicatechin]
IC50 (Bcl-xL; [5]): > 100 µM

O=C(O[C@@H]1Cc2c(O)cc(O)cc2O[C@H]1c1cc(O)c(O)c(O)c1)c1cc(O)c(O)c(O)c1 [(−) Gallocatechin-3-gallate (GCG), (−) Gallocatechin-3-gallate]
IC50 (Bcl-xL; [5]): 0.63 µM
